# Source: publication PMC5218480 (PLoS ONE, 2017)
# System: MV-4-11 cells
# Assay: Gene expression microarray analysis (Affymetrix PrimeView) and GSEA
# Assay type: cell-based, human
# Set-up: RFU PODN (11730768_x_at) / Fold change /veh PODN (11730768_x_at) / RFU LINC00158 (11744669_a_at) / Fold change /veh LINC00158 (11744669_a_at) / RFU DUSP10 (11751237_a_at) / Fold change /veh DUSP10 (11751237_a_at) / RFU ID3 (11757404_x_at) / Fold change /veh ID3 (11757404_x_at) / RFU PLEKHG5 (11737974_s_at) / Fold change /veh PLEKHG5 (11737974_s_at) / RFU LRRC4B (11730491_at) / Fold change /veh LRRC4B (11730491_at) / RFU GIMAP4 (11747438_a_at) / Fold change /veh GIMAP4 (11747438_a_at) / RFU KRT8 (11758183_x_at) / Fold change /veh KRT8 (11758183_x_at) / RFU CNN1 (11734310_a_at) / Fold change /veh CNN1 (11734310_a_at) / RFU VPS37D (11726825_at) / Fold change /veh VPS37D (11726825_at) / RFU C10orf10 (11716522_x_at) / Fold change /veh C10orf10 (11716522_x_at) / RFU KIR2DL2 /// KIR2DL4 /// KIR2DL5A /// KIR2DL5B /// KIR2DS1 /// KIR2DS2 /// KIR2DS3 /// KIR2DS4 /// KIR3DL3 /// KIR3DL3 /// KIR3DS1 (11738374_at) / Fold change /veh KIR2DL2 /// KIR2DL4 /// KIR2DL5A /// KIR2DL5B /// KIR2DS1 /// KIR2DS2 /// KIR2DS3 /// KIR2DS4 /// KIR3DL3 /// KIR3DL3 /// KIR3DS1 (11738374_at) / RFU C1QL1 (11718748_at) / Fold change /veh C1QL1 (11718748_at) / RFU TMPRSS4 (11747572_a_at) / Fold change /veh TMPRSS4 (11747572_a_at) / RFU HAMP (11756126_x_at) / Fold change /veh HAMP (11756126_x_at) / RFU RNFT2 (11725882_a_at) / Fold change /veh RNFT2 (11725882_a_at) / RFU NR4A2 (11747474_a_at) / Fold change /veh NR4A2 (11747474_a_at) / RFU ABCC12 (11746883_a_at) / Fold change /veh ABCC12 (11746883_a_at) / RFU TMEM136 (11760407_x_at) / Fold change /veh TMEM136 (11760407_x_at) / RFU CLDN22 /// WWC2 (11732394_at) / Fold change /veh CLDN22 /// WWC2 (11732394_at) / RFU HLA-DPB1 (11760878_x_at) / Fold change /veh HLA-DPB1 (11760878_x_at) / RFU SPINT1 (11716480_a_at) / Fold change /veh SPINT1 (11716480_a_at) / RFU GAP43 (11754022_s_at) / Fold change /veh GAP43 (11754022_s_at) / RFU A4GNT (11735810_at) / Fold change /veh A4GNT (11735810_at) / RFU PRB3 (11715151_x_at) / Fold change /veh PRB3 (11715151_x_at) / RFU TUBB4B (11761932_at) / Fold change /veh TUBB4B (11761932_at) / RFU CAPN14 (11732068_a_at) / Fold change /veh CAPN14 (11732068_a_at) / RFU TMCC2 (11721928_a_at) / Fold change /veh TMCC2 (11721928_a_at) / RFU IRGQ (11745062_a_at) / Fold change /veh IRGQ (11745062_a_at) / RFU FAM174B (11720279_a_at) / Fold change /veh FAM174B (11720279_a_at) / RFU TMPRSS4 (11748680_a_at) / Fold change /veh TMPRSS4 (11748680_a_at) / RFU FAM212B (11763350_a_at) / Fold change /veh FAM212B (11763350_a_at) / RFU PLEKHG5 (11743358_a_at) / Fold change /veh PLEKHG5 (11743358_a_at) / RFU ZSCAN30 (11745921_a_at) / Fold change /veh ZSCAN30 (11745921_a_at) / RFU CMKLR1 (11741424_a_at) / Fold change /veh CMKLR1 (11741424_a_at) / RFU LOC101060620 /// MAPK8IP1 (11723275_at) / Fold change /veh LOC101060620 /// MAPK8IP1 (11723275_at) / RFU SPTSSB (11747773_x_at) / Fold change /veh SPTSSB (11747773_x_at) / RFU PRSS12 (11739890_at) / Fold change /veh PRSS12 (11739890_at) / RFU BIN1 (11741810_x_at) / Fold change /veh BIN1 (11741810_x_at) / RFU WNT11 (11732464_a_at) / Fold change /veh WNT11 (11732464_a_at) / RFU C10orf10 (11716521_a_at) / Fold change /veh C10orf10 (11716521_a_at) / RFU C5orf56 (11738089_at) / Fold change /veh C5orf56 (11738089_at) / RFU CYB561 (11721691_x_at) / Fold change /veh CYB561 (11721691_x_at) / RFU ANKRD19P (11752326_a_at) / Fold change /veh ANKRD19P (11752326_a_at) / RFU OR2T12 /// OR2T33 /// OR2T8 (11738714_s_at) / Fold change /veh OR2T12 /// OR2T33 /// OR2T8 (11738714_s_at) / RFU VCAN (11748164_a_at) / Fold change /veh VCAN (11748164_a_at) / RFU JSRP1 (11732532_at) / Fold change /veh JSRP1 (11732532_at) / RFU KRTAP10-11 (11738290_x_at) / Fold change /veh KRTAP10-11 (11738290_x_at) / RFU MYO3A (11730013_a_at) / Fold change /veh MYO3A (11730013_a_at) / RFU EBF3 (11725865_a_at) / Fold change /veh EBF3 (11725865_a_at) / RFU CAMK2N1 (11719241_x_at) / Fold change /veh CAMK2N1 (11719241_x_at) / RFU C5orf56 (11738088_a_at) / Fold change /veh C5orf56 (11738088_a_at) / RFU OLFML3 (11715873_a_at) / Fold change /veh OLFML3 (11715873_a_at) / RFU LOC100653217 /// NTM (11731650_a_at) / Fold change /veh LOC100653217 /// NTM (11731650_a_at) / RFU MAPK11 (11762145_a_at) / Fold change /veh MAPK11 (11762145_a_at) / RFU FIZ1 (11724087_x_at) / Fold change /veh FIZ1 (11724087_x_at) / RFU OASL (11726364_x_at) / Fold change /veh OASL (11726364_x_at) / RFU SOX15 (11748057_x_at) / Fold change /veh SOX15 (11748057_x_at) / RFU CD79A (11719716_a_at) / Fold change /veh CD79A (11719716_a_at) / RFU HIST1H1D (11736915_at) / Fold change /veh HIST1H1D (11736915_at) / RFU CASKIN2 (11723855_a_at) / Fold change /veh CASKIN2 (11723855_a_at) / RFU LOC730098 (11760151_x_at) / Fold change /veh LOC730098 (11760151_x_at) / RFU OR4N2 (11742367_at) / Fold change /veh OR4N2 (11742367_at) / RFU PRRT2 (11749266_a_at) / Fold change /veh PRRT2 (11749266_a_at) / RFU SNX32 (11753110_a_at) / Fold change /veh SNX32 (11753110_a_at) / RFU CDHR5 (11726645_a_at) / Fold change /veh CDHR5 (11726645_a_at) / RFU RCAN1 (11760418_a_at) / Fold change /veh RCAN1 (11760418_a_at) / RFU FAM167A (11723789_a_at) / Fold change /veh FAM167A (11723789_a_at) / RFU FAM26E (11764081_at) / Fold change /veh FAM26E (11764081_at) / RFU ISYNA1 (11749810_s_at) / Fold change /veh ISYNA1 (11749810_s_at) / RFU ACY1 (11761880_at) / Fold change /veh ACY1 (11761880_at) / RFU 11764098_at / Fold change /veh 11764098_at / RFU SAMD14 (11745864_x_at) / Fold change /veh SAMD14 (11745864_x_at) / RFU NPB (11741838_a_at) / Fold change /veh NPB (11741838_a_at) / RFU TMPRSS6 (11731388_a_at) / Fold change /veh TMPRSS6 (11731388_a_at) / RFU KRTAP10-2 (11738614_at) / Fold change /veh KRTAP10-2 (11738614_at) / RFU ARHGAP8 /// PRR5-ARHGAP8 (11727945_x_at) / Fold change /veh ARHGAP8 /// PRR5-ARHGAP8 (11727945_x_at) / RFU KRTAP5-7 /// NADSYN1 (11734609_at) / Fold change /veh KRTAP5-7 /// NADSYN1 (11734609_at) / RFU RASL12 (11751679_a_at) / Fold change /veh RASL12 (11751679_a_at) / RFU CDKN2B (11736163_a_at) / Fold change /veh CDKN2B (11736163_a_at) / RFU PRF1 (11729649_at) / Fold change /veh PRF1 (11729649_at) / RFU, ZNF638 /// ZNF638-IT1 / Fold change vs veh, ZNF638 /// ZNF638-IT1 / RFU, PANK3 / Fold change vs veh, PANK3 / RFU, SH3YL1 / Fold change vs veh, SH3YL1 / RFU, ZEB2 / Fold change vs veh, ZEB2 / RFU, NRIP1 / Fold change vs veh, NRIP1 / RFU, PTTG1IP / Fold change vs veh, PTTG1IP / RFU, CAPN2 / Fold change vs veh, CAPN2 / RFU, MED14 / Fold change vs veh, MED14 / RFU, SNORA58 / Fold change vs veh, SNORA58 / RFU, C1orf63 / Fold change vs veh, C1orf63 / RFU, LRRFIP1 / Fold change vs veh, LRRFIP1 / RFU, NDUFAF7 / Fold change vs veh, NDUFAF7 / RFU, SLC12A2 / Fold change vs veh, SLC12A2 / RFU, IBTK / Fold change vs veh, IBTK / RFU, ESF1 / Fold change vs veh, ESF1 / Fold change vs veh, TMEM50B / RFU, TAOK1 / Fold change vs veh, TAOK1 / RFU, ACBD3 / Fold change vs veh, ACBD3 / RFU, TMA16 / Fold change vs veh, TMA16 / RFU, RWDD3 / Fold change vs veh, RWDD3 / RFU, BCAT1 / Fold change vs veh, BCAT1 / RFU, EDEM3 / Fold change vs veh, EDEM3 / RFU, TMEM33 / Fold change vs veh, TMEM33 / RFU, WDR75 / Fold change vs veh, WDR75 / RFU, AHCTF1 / Fold change vs veh, AHCTF1 / RFU, TFRC / Fold change vs veh, TFRC / RFU, ZDHHC17 / Fold change vs veh, ZDHHC17 / RFU, NOM1 / Fold change vs veh, NOM1 / RFU, ARL8B / Fold change vs veh, ARL8B / RFU, ZBTB11 / Fold change vs veh, ZBTB11 / RFU, TAMM41 / Fold change vs veh, TAMM41 / RFU, KIAA1704 /// LOC100996395 / Fold change vs veh, KIAA1704 /// LOC100996395 / RFU, ING1 / Fold change vs veh, ING1 / RFU, TRMT61B / Fold change vs veh, TRMT61B / RFU, FUBP3 / Fold change vs veh, FUBP3 / RFU, TP53 / Fold change vs veh, TP53 / RFU, TNKS2 / Fold change vs veh, TNKS2 / RFU, ZFP14 / Fold change vs veh, ZFP14 / RFU, ACTR2 / Fold change vs veh, ACTR2 / RFU, PPP3R1 / Fold change vs veh, PPP3R1 / RFU, PIK3R1 / Fold change vs veh, PIK3R1 / RFU, HNRNPA1 / Fold change vs veh, HNRNPA1 / RFU, RNF170 / Fold change vs veh, RNF170 / RFU, ZNF28 / Fold change vs veh, ZNF28 / RFU, RNGTT / Fold change vs veh, RNGTT / RFU, OGT / Fold change vs veh, OGT / RFU, BRD1 / Fold change vs veh, BRD1 / RFU, MARS / Fold change vs veh, MARS / RFU, ZNF655 / Fold change vs veh, ZNF655 / RFU, FAHD1 / Fold change vs veh, FAHD1 / RFU, BDP1 / Fold change vs veh, BDP1 / RFU, LRRCC1 / Fold change vs veh, LRRCC1 / RFU, ARID1A / Fold change vs veh, ARID1A / RFU, ZNF146 / Fold change vs veh, ZNF146 / RFU, ZNF330 / Fold change vs veh, ZNF330 / RFU, GPN3 / Fold change vs veh, GPN3 / RFU, C9orf123 / Fold change vs veh, C9orf123 / RFU, N4BP2L2 / Fold change vs veh, N4BP2L2 / RFU, ARFIP1 / Fold change vs veh, ARFIP1 / RFU, FAM179B / Fold change vs veh, FAM179B / RFU, BCL10 / Fold change vs veh, BCL10 / RFU, UHRF1BP1L / Fold change vs veh, UHRF1BP1L / RFU, BET1 / Fold change vs veh, BET1 / RFU, CNOT2 / Fold change vs veh, CNOT2 / RFU, ZNF268 / Fold change vs veh, ZNF268 / Fold change vs veh, ZNF507 / RFU, DGCR2 / Fold change vs veh, DGCR2 / RFU, WDSUB1 / Fold change vs veh, WDSUB1 / Fold change vs veh, HSP90B1 /// MIR3652 / RFU, ADSS / Fold change vs veh, ADSS / RFU, GK / Fold change vs veh, GK / RFU, ZNF148 / Fold change vs veh, ZNF148 / RFU, TAF9 / Fold change vs veh, TAF9 / RFU, SLC1A5 / Fold change vs veh, SLC1A5 / RFU, SLMO2 / Fold change vs veh, SLMO2 / RFU, ABCC4 / Fold change vs veh, ABCC4 / RFU, LOC101060439 /// RAP1B / Fold change vs veh, LOC101060439 /// RAP1B / RFU, RFX7 / Fold change vs veh, RFX7 / RFU, GTPBP10 / Fold change vs veh, GTPBP10 / RFU, CNEP1R1 / Fold change vs veh, CNEP1R1 / RFU, BIVM-ERCC5 /// ERCC5 / Fold change vs veh, BIVM-ERCC5 /// ERCC5 / RFU, ILF3 / Fold change vs veh, ILF3 / RFU 11762660_at / Fold change /veh 11762660_at / RFU VCAN (11757783_s_at) / Fold change /veh VCAN (11757783_s_at) / RFU DDX43 (11728927_at) / Fold change /veh DDX43 (11728927_at) / RFU KRT8 (11758188_x_at) / Fold change /veh KRT8 (11758188_x_at) / RFU NKD1 (11759106_at) / Fold change /veh NKD1 (11759106_at) / RFU SRD5A1 (11742802_a_at) / Fold change /veh SRD5A1 (11742802_a_at) / RFU TPSAB1 /// TPSB2 (11721975_s_at) / Fold change /veh TPSAB1 /// TPSB2 (11721975_s_at) / RFU GSTM3 (11746129_a_at) / Fold change /veh GSTM3 (11746129_a_at) / RFU IL23R (11737362_x_at) / Fold change /veh IL23R (11737362_x_at) / RFU TMEM51 (11727254_a_at) / Fold change /veh TMEM51 (11727254_a_at) / RFU PIWIL2 (11732686_x_at) / Fold change /veh PIWIL2 (11732686_x_at) / RFU ORM1 (11744905_x_at) / Fold change /veh ORM1 (11744905_x_at) / RFU CCDC152 (11743942_at) / Fold change /veh CCDC152 (11743942_at) / RFU ECM1 (11717891_a_at) / Fold change /veh ECM1 (11717891_a_at) / RFU IL23R (11748794_a_at) / Fold change /veh IL23R (11748794_a_at) / RFU TNFAIP8L3 (11732012_x_at) / Fold change /veh TNFAIP8L3 (11732012_x_at) / RFU MBOAT4 (11741988_at) / Fold change /veh MBOAT4 (11741988_at) / RFU 11764193_at / Fold change /veh 11764193_at / RFU TMEM53 (11763286_at) / Fold change /veh TMEM53 (11763286_at) / RFU MAGEB2 (11727129_at) / Fold change /veh MAGEB2 (11727129_at) / RFU TMEM200A (11744735_a_at) / Fold change /veh TMEM200A (11744735_a_at) / RFU CCDC152 (11751479_a_at) / Fold change /veh CCDC152 (11751479_a_at) / RFU FAM211A (11726209_a_at) / Fold change /veh FAM211A (11726209_a_at) / RFU RGS16 (11746705_a_at) / Fold change /veh RGS16 (11746705_a_at) / RFU VCAN (11755009_s_at) / Fold change /veh VCAN (11755009_s_at) / RFU RHOB (11743442_s_at) / Fold change /veh RHOB (11743442_s_at) / RFU RGS16 (11720943_a_at) / Fold change /veh RGS16 (11720943_a_at) / RFU RGS16 (11720944_at) / Fold change /veh RGS16 (11720944_at) / RFU, VPS4B / Fold change vs veh, VPS4B / RFU, CREB1 / Fold change vs veh, CREB1 / RFU, DNAJC13 / Fold change vs veh, DNAJC13 / RFU, GNAQ / Fold change vs veh, GNAQ / RFU, CDK5R1 / Fold change vs veh, CDK5R1 / RFU, ZRANB3 / Fold change vs veh, ZRANB3 / RFU, CUL4A / Fold change vs veh, CUL4A / RFU, CCNY / Fold change vs veh, CCNY / RFU, UFL1 / Fold change vs veh, UFL1 / RFU, COG3 / Fold change vs veh, COG3 / RFU, DIAPH2 / Fold change vs veh, DIAPH2 / RFU, SKA2 / Fold change vs veh, SKA2 / RFU, AFF3 / Fold change vs veh, AFF3 / RFU, LMF1 / Fold change vs veh, LMF1 / RFU, IPO11 / Fold change vs veh, IPO11 / RFU, DFFB / Fold change vs veh, DFFB / RFU, FOXP1 / Fold change vs veh, FOXP1 / RFU, CARD8 / Fold change vs veh, CARD8 / RFU, STRN3 / Fold change vs veh, STRN3 / RFU, ADK / Fold change vs veh, ADK / RFU, RASSF2 / Fold change vs veh, RASSF2 / RFU, WIPF1 / Fold change vs veh, WIPF1 / RFU, LARP1B / Fold change vs veh, LARP1B / RFU, RASA1 / Fold change vs veh, RASA1 / RFU, RB1 / Fold change vs veh, RB1 / RFU, PPFIA1 / Fold change vs veh, PPFIA1 / RFU, MAT2A / Fold change vs veh, MAT2A / RFU, CCT5 / Fold change vs veh, CCT5 / RFU, WDR92 / Fold change vs veh, WDR92 / RFU, CUX1 / Fold change vs veh, CUX1 / RFU, TTC7A / Fold change vs veh, TTC7A / RFU, TMEM135 / Fold change vs veh, TMEM135 / RFU, DEPTOR / Fold change vs veh, DEPTOR / RFU, CPM / Fold change vs veh, CPM / RFU, DNAJB6 / Fold change vs veh, DNAJB6 / RFU, CACNA2D3 / Fold change vs veh, CACNA2D3 / RFU, DTX4 / Fold change vs veh, DTX4 / RFU, TFCP2 / Fold change vs veh, TFCP2 / RFU, GMCL1 /// GMCL1P1 / Fold change vs veh, GMCL1 /// GMCL1P1 / RFU, AEBP2 / Fold change vs veh, AEBP2 / RFU, SNHG1 /// SNORD22 /// SNORD25 /// SNORD26 /// SNORD27 /// SNORD28 /// SNORD29 /// SNORD31 / Fold change vs veh, SNHG1 /// SNORD22 /// SNORD25 /// SNORD26 /// SNORD27 /// SNORD28 /// SNORD29 /// SNORD31 / Fold change (Aza/veh), C12orf56 (ProbeSet 11735607_a_at) / Fold change (ACY-1035/veh), C12orf56 (ProbeSet 11735607_a_at) / Fold change (Aza/veh), FGFR1OP (ProbeSet 11751329_s_at) / Fold change (ACY-1035/veh), FGFR1OP (ProbeSet 11751329_s_at) / Fold change (Aza/veh), VPS36 (ProbeSet 11739960_a_at) / Fold change (ACY-1035/veh), VPS36 (ProbeSet 11739960_a_at) / RFU SYPL1 (11715823_x_at) / Fold change /veh SYPL1 (11715823_x_at) / RFU IGFBP7 (11715501_s_at) / Fold change /veh IGFBP7 (11715501_s_at) / RFU REEP3 (11722064_at) / Fold change /veh REEP3 (11722064_at) / RFU IGLL1 (11728026_x_at) / Fold change /veh IGLL1 (11728026_x_at): dose or concentration left out as unconfirmed
# Conditions: ProbeSet 11764057_s_at; LIST B
smiles,measurement,value
Nc1ccc(-c2cccs2)cc1NC(=O)c1ccc2c(c1)cc(C1CC1)n2CCN1CCOCC1 [ACY-1035],"RFU, C1orf63",108.16 RFU
